Here are results for three compounds from publication PMC7734336, “Riproximin Exhibits Diversity in Sugar Binding, and Modulates some Metastasis-Related Proteins with Lectin like Properties in Pancreatic Ductal Adenocarcinoma” (Frontiers in Pharmacology, 2020).

In test [1] the target is T1, Riproximin (Rpx) (Ximenia americana, UniProt Q2PA54). Nature of the test: waterLOGSY NMR. Format: binding. The note with it: 298 K; pyranose anomers observed separately in one sample.
Test [2] has as its target T1, Riproximin (Rpx). The test can be described thus: 1H NMR line broadening and waterLOGSY. Format: binding. The note with it: 298 K; pyranose anomers observed separately in one sample.

T1 sequence (Q2PA54 53-325 limits assumed): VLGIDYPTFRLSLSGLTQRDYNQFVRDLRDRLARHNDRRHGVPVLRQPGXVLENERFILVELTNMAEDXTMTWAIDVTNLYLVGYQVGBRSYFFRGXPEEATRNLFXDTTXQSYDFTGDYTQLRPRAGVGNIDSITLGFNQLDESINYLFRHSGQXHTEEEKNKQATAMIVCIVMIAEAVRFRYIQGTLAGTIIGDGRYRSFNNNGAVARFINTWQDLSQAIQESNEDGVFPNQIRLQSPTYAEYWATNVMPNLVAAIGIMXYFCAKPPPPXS
T1 sequence (Q2PA54 334-601 limits assumed): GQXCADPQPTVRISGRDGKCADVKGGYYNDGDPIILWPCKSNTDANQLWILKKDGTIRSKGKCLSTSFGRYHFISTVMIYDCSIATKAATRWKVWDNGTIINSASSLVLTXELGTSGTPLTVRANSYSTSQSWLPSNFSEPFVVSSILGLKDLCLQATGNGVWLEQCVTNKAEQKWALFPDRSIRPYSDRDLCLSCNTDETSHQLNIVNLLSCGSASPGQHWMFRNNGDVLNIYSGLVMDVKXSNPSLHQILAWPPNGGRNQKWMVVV

In the case of `C[C@@H]1OC(O)[C@H](O)[C@H](O)[C@H]1O` (mixture of isomers) [L-rhamnose], on Riproximin (Rpx) [1], the “waterLOGSY NMR” value is “water-LOGSY spectrum confirmed nevertheless the very weak binding of both, the α- and β-anomers of l-rhamnose”.
As to `OC[C@H]1OC(O)[C@H](O)[C@@H](O)[C@H]1O` (mixture of isomers) [D-galactose], the “1H NMR line broadening and waterLOGSY” value at Riproximin (Rpx) [2] is “The affinities of both D-galactose and L-fucose for Rpx were moderate as evident by clear”.
For the compound `C[C@@H]1OC(O)[C@@H](O)[C@H](O)[C@@H]1O` (mixture of isomers) [L-fucose], the “1H NMR line broadening and waterLOGSY” value on Riproximin (Rpx) [2] is given as “The methyl doublet signals of L-fucose show clear line broadening due to binding to Rpx”.
